This note sets out measurements from US20220313587A1, “Oral Care Compositions” (Colgate-Palmolive Company, priority 2019, published 2022).

Test [1] concerns gingival epithelial cells (GEC). In words: Topical application of vitamin D to gingival epithelial cells, LL-37 expression. Format: cell-based.
A further test concerns Cyp24A1. In words: Relative gene expression by qPCR (Cyp24A1 probe) in oral tissue model after treatment with toothpaste slurry. Format: cell-based, human. The settings on record: fresh toothpaste slurry 1:3 in water, 2 minutes treatment, overnight incubation, normalized with GAPDH. On the procedure:
(§1) A toothpaste slurry was prepared by diluting the toothpaste formulation of Table 1 with deionized water in a 1:3 ratio. The slurry was applied on top of tissues that modeled the human oral cavity. After 2 minutes of the treatment, the tissues were rinsed with PBS twice or three times. Medium in wells was replaced with fresh medium and incubated in a cell culture incubator for overnight. Tissues were harvested and processed for RNA isolation and c-DNA preparation. Two probes were used for qPCR; CAP-18 (LL-37) and Cyp24A1. Relative levels of expressions were assessed after normalization with GAPDH (internal control).
(§2) The data is consistent for both LL-37 and Cyp24A1.
On the technique in general: In qPCR the cycle at which signal appears reflects the starting amount.

The test system of the next test is CAP-18 (LL-37). The experiment in a line: Relative gene expression by qPCR (LL-37 probe) in oral tissue model after treatment with toothpaste slurry. Format: cell-based, human. The settings on record: fresh toothpaste slurry 1:3 in water, 2 minutes treatment, overnight incubation, normalized with GAPDH. As for the experimental part:
as §1, §2

SMILES strings stand for the structures.

`C=C1/C(=C\C=C2/CCC[C@]3(C)[C@@H]([C@H](C)CCCC(C)(C)O)CC[C@@H]23)C[C@@H](O)C[C@@H]1O` [1,25(OH)2D3, 1,25-dihydroxycholecalciferol]: the “expression of anti-microbial peptide (LL-37) proteins” value in test [1] is listed as “induces enhanced expression”.

For `C=C1CC[C@H](O)C/C1=C/C=C1\CCC[C@]2(C)[C@@H]([C@H](C)CCCC(C)C)CC[C@@H]12` [Neat Active, cholecalciferol], the “Relative Gene Expression after Treatment, Cyp24A1, Mean” value in the test with Cyp24A1 came out at 4.3. For the same compound, the “Relative Gene Expression after Treatment, LL-37, Mean” value in the test on CAP-18 (LL-37) stood at 2.0.
